From US12102686B2, “Delivery systems and methods for reactive hydroxyl-containing compounds” (priority 2018, dated 2024)

Experiment: Free curcumin stability and consumption in the presence of AAPH (absorbance at 420 nm, HPLC)
Format: physicochemical
Procedure: Periodic samples were collected and read at 420 nm using a Cary 50 UV-Vis Microplate Reader spectroscopy instrument to monitor absorbance of solution over 24 hours.

- time curcumin was stable in aqueous solution (no significant change in absorbance, no precipitation) (50 μg/mL curcumin in 0.1% (w/v) Tween 80 PBS (pH 7.4), 37° C., no AAPH): over 24 hours
- time after which the amount of curcumin decreases to 20% (10 mM AAPH): 4 h
- curcumin consumed (10 mM AAPH solution, within the first 8 hours): 90%
- time after which the amount of curcumin decreases to 20% (100 mM AAPH): 0.333 h
- time of finality of curcumin consumption, experimental (100 mM AAPH): 8 h
- curcumin consumed (100 mM AAPH solution, within the first hour): 90%
- curcuminoid consumption susceptibility by AAPH (HPLC peak) (versus demethoxycurcumin and bisdemethoxycurcumin, FIG. 3): diminished at a faster rate
SMILES: COc1cc(/C=C/C(=O)CC(=O)/C=C/c2ccc(O)c(OC)c2)ccc1O [Curcumin]
